Assay results from patent publication US20060235062A1, “Novel heterocyclic analogs of diphenylethylene compounds” (THERACOS, INC., priority 2002, published 2006).

What was measured:
[1] = test system: ob/ob mice; assay: Antihyperglycemic activity and serum parameters in ob/ob mice; type: in vivo; design: decrease in triglyceride as compared to the control / lowering of FFA compared to the control / decrease in the GHb level compared to the control / reduction of serum insulin / reduction of triglycerides / reduction of free fatty acid (FFA) levels: concentration or dose not given beside the values
[2] = test system: 3T3-L1 adipocytes; assay: Glucose uptake in differentiated 3T3-L1 adipocytes; type: cell-based
Experimental: Referring to FIG. 8 glucose uptake in 3T3-L1 differentiated adipocytes was measured after treatment with the test compound. The assay was conducted according to the method of Tafuri, Endocrinology, 137, 4706-4712 (1996). The serum-starved cells were treated with the test compound for 48 hours at different concentrations, then washed and incubated in glucose-free media for 30 minutes at 37° C. Then ^14C-deoxyglucose was added and uptake was monitored for 30 minutes under incubation. After washing, the cells were lysed (0.1% SIDS) and counted.
Basal glucose uptake was measured in differentiated 3T3-L1 adipocytes following the protocol of Tafuri (6) with modifications. Briefly, 3T3-L1 fibroblasts, obtained from ATCC (Manassas, Va.), were differentiated to adipocytes by treating cells with porcine insulin (1 μg/ml for 4 days), dexamethasone (0.25 μM for first 2 days) and isobutyl methyl xanthine (IBMX, 0.5 mM for first 2 days) (all from Sigma Chemicals, St Louis, Mo.) following the protocol of Frost and Lane (7). Differentiated adipocytes were incubated in Dulbecco's Modified Eagle Medium (DMEM) containing 10% fetal bovine serum (GibcoBRL, Gaithersburg, Md.) with various concentrations of Compound 11 or vehicle (0.1% DMSO) for 48 h in 24-well plates, in triplicate. Cells were washed with phosphate buffered saline (PBS, 150 mM NaCl, 1 mM KH2PO4, 3 mM Na2HPO4; pH 7.4) and incubated in glucose-free DMEM for 2 h at 37° C. The cells were washed 3 times with Krebs Ringer Phosphate Buffer (KRP). Glucose uptake was initiated by addition of 0.25 μCi 2-^14C(U)-deoxy-D-glucose (300 μCi/mmol, American Radiolabeled Chemicals Inc., St Louis, Mo.) per well and the cells incubated for 10 min at room temperature in the presence of 0.1 mmol cold 2-deoxy-D-glucose. Finally, the cells were washed three times with ice-cold PBS containing 10 mM cold glucose, lysed with 0.5% SDS, and counted in a scintillation counter (Beckman LS6500).

[3] = target: T1, COX-2 (Mus musculus, UniProt Q05769); assay: LPS-induced COX-2 activity in RAW cells (PGE2 production); type: cell-based; conditions: 0.1-100 μM, FIG. 12
T1 sequence (Q05769 18-604): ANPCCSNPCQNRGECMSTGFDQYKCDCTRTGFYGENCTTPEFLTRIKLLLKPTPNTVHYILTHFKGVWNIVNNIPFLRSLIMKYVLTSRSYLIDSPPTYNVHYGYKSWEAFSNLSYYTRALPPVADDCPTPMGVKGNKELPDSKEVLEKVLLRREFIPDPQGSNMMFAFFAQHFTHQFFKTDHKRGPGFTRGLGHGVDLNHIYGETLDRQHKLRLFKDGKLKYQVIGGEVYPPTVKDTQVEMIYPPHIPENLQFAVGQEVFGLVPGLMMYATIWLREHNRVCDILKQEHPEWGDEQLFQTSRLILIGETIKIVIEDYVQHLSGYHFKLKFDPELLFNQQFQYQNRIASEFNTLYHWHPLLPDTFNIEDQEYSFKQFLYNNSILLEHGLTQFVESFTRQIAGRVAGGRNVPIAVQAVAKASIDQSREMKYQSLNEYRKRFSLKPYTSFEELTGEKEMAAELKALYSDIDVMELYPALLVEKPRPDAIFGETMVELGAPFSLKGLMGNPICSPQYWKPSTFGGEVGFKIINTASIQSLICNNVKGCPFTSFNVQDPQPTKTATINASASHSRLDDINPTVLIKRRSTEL
Experimental: (§1) After 1 hour LPS (0.1 pg/mL) was added and cells were incubated an additional 6 hours. Cell supernatant was then collected, aliquoted and frozen at −70° C., and aliquots used to determine COX-2 and COX-1 activity. Compound 11, but not rosiglitazone, inhibited the activity of COX-2 (as measured by PGE2 production in a 50 μl sample).

[4] = target: T2, COX-1 (Mus musculus, UniProt P22437); assay: COX-1 activity in RAW cells; type: cell-based; conditions: 0.1-100 μM
T2 construct: aliquots used to determine COX-2 and COX-1 activity; endogenous in cells; host or cells: RAW (RAW 264.7) cells
T2 sequence (P22437 27-602): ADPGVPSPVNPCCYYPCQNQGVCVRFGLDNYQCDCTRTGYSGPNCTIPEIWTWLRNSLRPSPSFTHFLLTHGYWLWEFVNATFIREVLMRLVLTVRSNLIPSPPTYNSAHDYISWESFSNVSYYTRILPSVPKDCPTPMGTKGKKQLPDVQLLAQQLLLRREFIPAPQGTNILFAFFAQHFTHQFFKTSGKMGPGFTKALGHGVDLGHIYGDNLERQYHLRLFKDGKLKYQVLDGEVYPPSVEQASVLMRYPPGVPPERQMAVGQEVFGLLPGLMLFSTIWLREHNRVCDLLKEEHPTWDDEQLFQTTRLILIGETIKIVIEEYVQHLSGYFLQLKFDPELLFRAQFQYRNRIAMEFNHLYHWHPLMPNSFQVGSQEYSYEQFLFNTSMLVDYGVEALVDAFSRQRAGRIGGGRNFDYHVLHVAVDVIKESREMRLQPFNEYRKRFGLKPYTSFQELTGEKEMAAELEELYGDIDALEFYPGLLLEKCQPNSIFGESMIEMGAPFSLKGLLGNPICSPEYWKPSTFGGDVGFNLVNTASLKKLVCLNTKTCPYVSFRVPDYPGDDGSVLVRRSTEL
Experimental: as §1

[5] = test system: DBA/1 Lac mice; assay: Collagen-induced arthritis in mice; type: in vivo; conditions: 50 mg/kg orally daily for 17 days
[6] = after fourteen days of treatment, p<0.05 vs vehicle
[7] = ob/ob mice, 50 mg/kg, 14 days, FIG. 17A

COC(=O)C(=Cc1cc(OC)cc(OC)c1)c1ccc(Oc2ccc(CC3SC(=O)NC3=O)cc2)cc1 (centres unmarked) [Compound 11, 3-(3,5-Dimethoxyphenyl)-2-{4-[4-(2,4-dioxothiazolidin-5-ylmethyl)-phenoxy]-phenyl}-acrylic acid methyl ester]
reduction of free fatty acid (FFA) levels [1, 6]: 33% | reduction of serum insulin [1, 6]: 58% | reduction of triglycerides [1, 6]: 65% | glycosylated hemoglobin after treatment ([1]; after fourteen days of treatment, reduced from 5.2%, p=0.15, FIG. 18): 3.8% | dose response of glucose lowering ([1]; ob/ob mice (n=8), three different doses, FIG. 19): dose dependent glucose lowering effect | weight gain in treated and control animals ([1]; ob/ob mice, 50 mg/kg oral once daily, 8 to 9 days): similar | decrease in blood glucose levels ([1]; ob/ob mice, 50 mg/kg oral once daily, 8 to 9 days, FIG. 21): 59 % vs. baseline | normalization of blood glucose levels [1, 7]: normalized by three days | time to significant decrease of blood glucose levels [1, 7]: ≤ 48 h | body weight compared to vehicle treated group ([1]; ob/ob mice, 50 mg/kg, 14 days, FIG. 17B): did not see any increase | drop of serum insulin ([1]; ob/ob mice, after 10 days of treatment, FIG. 6A): 58% | lowering of FFA compared to the control ([1]; ob/ob mice, after 10 days of treatment, FIG. 6C): 33% | decrease in the GHb level compared to the control ([1]; ob/ob mice, after 14 days of treatment, FIG. 6D): 1.3% | decrease in triglyceride as compared to the control ([1]; ob/ob mice, after treatment for 10 days, FIG. 6B): 65% | drop in blood glucose level ([1]; ob/ob mice, oral 50 mg/kg, 15 days, FIG. 2A): 62% | body weight, control vs treatment group ([1]; ob/ob mice, oral 50 mg/kg, FIG. 2B): no significant increase | in vivo potency relative to rosiglitazone on a mole-per-mole basis (more potent) ([1]; ob/ob mice, same glucose lowering at 10 mg/kg): 46% | glucose uptake activity in words ([2]; 0.1 μM): retained activity, but less than that of rosiglitazone | glucose uptake activity in words ([2]; 1 μM): comparable to rosiglitazone | effect on insulin-stimulated glucose uptake ([2]; 5 μM with increasing insulin, FIG. 20B): additive, not synergistic | maximum glucose uptake over basal levels ([2]; 0.01-10 μM, 48 h, mean±SE, FIG. 20A): 1.33±0.02 fold | % Glucose uptake 0.1 μm ([2]; 0.1 μm, average of quadruplicate ± SD): 161.6 ± 11.4 % basal of the non treated cells | % Glucose uptake 1.0 μm ([2]; 1.0 μm, average of quadruplicate ± SD): 218.1 ± 10.0 % basal of the non treated cells | inhibition of COX-2 activity (PGE2 production) [3]: inhibited | inhibition of COX-1 activity [4]: Neither compound inhibited | body weight vs vehicle group ([5]; FIG. 13A): no change | clinical scores vs vehicle treated group ([5]; FIG. 13B): significantly lower | joints affected vs vehicle treated group ([5]; FIG. 13C): significantly lower | paw thickness vs vehicle treated group ([5]; FIG. 13D): significantly lower
